# According to patent publication US20040132819A1, “Appetite control method” (priority 2002, published 2004):
# Read-outs that look alike come from different tables or passages of the source.
# Legend:
# [1] = pre-satiated rats, subcutaneous, all doses; cited from earlier work
# [2] = test system: diet-restricted BALB/c mice; details: cited from earlier work
# [3] = test system: rat brain monoacylglycerols; assay: Monoacylglycerol (MAG) levels in rat brain; type: in vivo, Sprague-Dawley rat; details: ANOVA main effect
# Description: (§1) Total lipid was extracted from rat brains using the Folch extraction method, typical for lipid extraction (Folch et al, 1957). The total lipid extract from each rat brain was separated into neutral lipid and phospholipid fractions using a silica cartridge. The neutral lipid fraction was further separated into MAG and NAE fractions using High Performance Liquid Chromatography (HPLC). Fatty acid composition of the MAG, NAE, and phospholipid fractions was determined using Gas-Liquid Chromatography (GLC) after derivatizing to the corresponding fatty acid methyl esters. The fatty acid composition results correspond to total fatty acids in the membrane phospholipids in brain, and the MAG and NAE fatty acid results represent the concentration of these fatty acyl derivatives in rat brains.
# Rat brain samples, stored frozen at −70° C., were separated into the two hemispheres; one half was used for determination of fatty acids in phospholipid, MAG, and NAE fractions and the other half was refrozen at −70° C. The half brain for analysis was transferred to a 50-mL glass centrifuge tube. Eight mL of methanol was added and the sample homogenized using a Polytron Dispersing and Mixing System (Kinematica, Switzerland) until well blended. The homogenizer probe was rinsed with 2 mL methanol added directly into the centrifuge tube. […]
# [4] = test system: rat brain phospholipid membrane; assay: Fatty acid levels in rat brain phospholipid membrane; type: in vivo, Sprague-Dawley rat; details: ANOVA main effect
# Description: as §1
# (§2) Rat brain samples, stored frozen at −70° C., were separated into the two hemispheres; one half was used for determination of fatty acids in phospholipid, MAG, and NAE fractions and the other half was refrozen at −70° C. The half brain for analysis was transferred to a 50-mL glass centrifuge tube. Eight mL of methanol was added and the sample homogenized using a Polytron Dispersing and Mixing System (Kinematica, Switzerland) until well blended. The homogenizer probe was rinsed with 2 mL methanol added directly into the centrifuge tube. Twenty mL of chloroform was then added to the sample and mixed vigorously by shaking. The sample was left undisturbed at room temperature for at least 1 hour. Known amounts of internal standards, 9.91 μg of monoheptadecanoin and 3.32 μg of docosatrienoyl ethanolamine, were added. Six mL of 0.9% saline was then added and the sample mixed vigorously by shaking. The sample was then centrifuged for 7 minutes at 2000 rpm at 15° C. until the organic and aqueous layers were well separated using a Beckman Allegra™ 6R Centrifuge; Fullerton, Calif.). The chloroform (bottom) layer was aspirated into a clean 30-mL test tube. The sample was then evaporated to dryness under N2 and was either stored at −20° C. or reconstituted in 500 μL of chloroform. […]
# [5] = Postprandial leptin and circulating insulin levels; type: in vivo, Sprague-Dawley rat
# Description: The rat pups were sacrificed by decapitation on day 20 after the food intake phase and final body weights were taken. The brain was removed, weighed, and quickly frozen (within 5 minutes) in liquid nitrogen. Brain tissue was stored in a −70° C. freezer. Blood was collected from the neck stump, mixed with heparin, placed on ice, and centrifuged to ensure adequate phase separation to prepare plasma. Plasma was stored at −70° C.
# Postprandial leptin levels in the rats fed the ARA-containing formulas during the formula feeding phase were about 20-30% lower than for rats fed the formulas without ARA. Postprandial leptin levels in the rats fed the DHA-containing formulas were about 5-15% higher than for rats fed the formulas without DHA. No differences in circulating insulin levels were found among the groups.
# [6] = test system: rat brain N-acylethanolamines; assay: N-acylethanolamine (NAE) levels in rat brain; type: in vivo, Sprague-Dawley rat
# Description: as §1, §2
# [7] = test system: brain NAEs and MAGs; details: piglets fed 0.2% AA (percent total fatty acids); cited from earlier work
# [8] = Deaths during artificial rearing; type: in vivo, Sprague-Dawley rat; details: combined rearings; vs 10 rats without DHA, p=0.054
# From the text: Male rat pups were removed from dams on postnatal day 6 and artificially reared on rat milk formulas to day 18. This procedure has been described in detail in the literature by Sonnenberg et al, 1982; Smart et al, 1983 and 1984; and Auestad et al, 1989. Similar procedures have been also been described by Ward et al, 1998, and Wainwright et al, 1999. On postnatal day 6, rat pups were randomly assigned to one of the four experimental rat milk formula groups (Table 3.2). The rat pups were lightly anesthetized, fitted with an intragastric cannula, and placed individually in pint-sized plastic containers free floating in a waterbath maintained at 36±2° C. The cannulae for individual rat pups were each connected to syringes filled with one of the four experimental rat milk formulas using polyethylene tubing. The rat pups were fed by intermittent, intragastric infusion, from day 6 to day 18. The formula was delivered to the rat pups for 20 or 30 min each hour, depending on the age of the rat, using a programmable pump housed in a bench-top refrigerator. The pump settings were modified daily to deliver specific quantities of rat milk formula to the rat pups to support normal growth.
# Two groups of rats were artificially reared one in February 2002 and one in April 2002. The plan was to cannulate a total of 64 rats, thirty-two per rearing and 8 rats per experimental formula group. […]
# [9] = test system: hypothalamic 20:4n-6 NAE and 20:4n-6 MAG; details: 125 or 250 μg intravenously, within 30 minutes, normal Sprague-Dawley rats; cited from earlier work
molecule,measurement,setting,value
"CCCCC/C=C\C/C=C\C/C=C\C/C=C\CCCC(=O)NCCO [20:4n-6 NAE, 5,8,11,14-eicosatetraenamide, (N-2-hydroxyethyl)-(all-Z)]",effect on eating,[1],induced significant overeating
same,food consumption vs control group,"[2]; 0.001 mg/kg intraperitoneally, 40% calorie restriction",consumed significantly more food
same,food consumption vs control group,[2]; 0.7 or 4 mg/kg intraperitoneally,did not show any significant change
"CCCCC/C=C\C/C=C\C/C=C\C/C=C\CCCC(=O)O [AA, arachidonic acid]",main effects on n-6 or n-3 MAG in brain,[3],no significant main effects
same,main effect on AA and C22:4n-6 levels in brain phospholipids,[4],increasing
same,main effect on brain phospholipid DHA,[4],decreasing
same,main effect on linoleic acid (C18:2n-6) and C20:3n-6 levels in brain phospholipids,[4],decreasing
same,postprandial leptin levels lower than in rats fed formulas without ARA,[5]; ARA-containing formulas during formula feeding phase,20-30%
same,main effect on 20:4n-6 NAE in brain,[6]; ANOVA main effect,increasing
same,main effect on total n-6 NAE in brain,[6]; ANOVA main effect,increasing
same,increase in 20:4n-6 NAE in brain,"[6]; rats fed formulas with AA, p=0.008",40%
same,20:4n-6 NAE increase in brain,[7],4 fold
"CC/C=C\C/C=C\C/C=C\C/C=C\C/C=C\C/C=C\CCC(=O)O [DHA, docosahexaenoic acid]",postprandial leptin levels higher than in rats fed formulas without DHA,[5]; DHA-containing formulas,5-15%
same,rats that died when DHA was in the formula,[8],3 rats
leptin: peptide hormone secreted from adipose cells,decrease of hypothalamic levels of 20:4n-6 NAE and 20:4n-6 MAG vs untreated controls,[9],40-50%
